From the Kinase Knowledgebase extract (Sharma et al. 2016) come the findings set out here.

The test deals with EGFR (UniProt P00533).
EGFR, sequence (P00533 whole entry, looked up): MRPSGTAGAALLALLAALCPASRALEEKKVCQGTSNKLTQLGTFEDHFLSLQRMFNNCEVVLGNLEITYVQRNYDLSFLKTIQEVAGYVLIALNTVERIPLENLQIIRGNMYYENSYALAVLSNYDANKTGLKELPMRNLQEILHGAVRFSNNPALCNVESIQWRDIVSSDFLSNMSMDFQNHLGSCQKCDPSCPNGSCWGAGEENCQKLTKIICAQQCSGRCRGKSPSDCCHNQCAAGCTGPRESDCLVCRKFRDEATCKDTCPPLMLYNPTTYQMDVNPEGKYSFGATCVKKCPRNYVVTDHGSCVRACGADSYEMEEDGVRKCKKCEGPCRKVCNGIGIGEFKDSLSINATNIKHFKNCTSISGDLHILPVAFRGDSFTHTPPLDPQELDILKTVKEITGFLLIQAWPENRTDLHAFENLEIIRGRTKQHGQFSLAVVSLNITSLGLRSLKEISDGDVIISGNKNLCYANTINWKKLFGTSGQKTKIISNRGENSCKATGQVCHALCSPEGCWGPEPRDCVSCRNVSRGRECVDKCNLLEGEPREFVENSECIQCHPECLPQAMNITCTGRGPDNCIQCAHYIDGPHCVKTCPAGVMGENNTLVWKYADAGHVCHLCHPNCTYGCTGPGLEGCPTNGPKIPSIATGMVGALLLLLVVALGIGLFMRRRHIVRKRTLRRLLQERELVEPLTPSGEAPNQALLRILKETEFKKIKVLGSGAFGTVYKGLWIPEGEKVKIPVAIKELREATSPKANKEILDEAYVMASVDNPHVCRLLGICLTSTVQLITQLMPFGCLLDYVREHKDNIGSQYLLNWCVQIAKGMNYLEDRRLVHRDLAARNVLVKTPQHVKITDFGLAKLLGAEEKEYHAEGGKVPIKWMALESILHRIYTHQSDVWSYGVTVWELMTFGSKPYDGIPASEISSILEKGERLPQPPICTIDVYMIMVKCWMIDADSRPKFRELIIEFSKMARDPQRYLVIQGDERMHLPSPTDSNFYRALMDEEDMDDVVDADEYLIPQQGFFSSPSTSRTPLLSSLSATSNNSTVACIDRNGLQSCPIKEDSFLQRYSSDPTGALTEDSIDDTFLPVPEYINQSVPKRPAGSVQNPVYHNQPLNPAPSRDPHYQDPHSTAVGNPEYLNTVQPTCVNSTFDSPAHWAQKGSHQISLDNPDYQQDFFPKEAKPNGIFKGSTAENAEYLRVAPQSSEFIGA
For `Cc1ccc2ncnc(Nc3cccc(C(=O)O)c3)c2c1`, the IC50 was > 50 µM.
On to `COc1cc2nc(Nc3ccc(C)cc3)nc(Nc3ccc(C)cc3)c2cc1OC`, for which the IC50 came out at 3.4 µM.
In the case of `Clc1ccccc1Nc1ncnc2ccccc12`, the IC50 was > 50 µM.
In the case of `Cc1ccc2ncnc(Nc3ccc(Br)cc3)c2c1` it was 14 µM; in that of `COc1cc2nc(N3CCN(C)CC3)nc(Nc3cccc(Cl)c3)c2cc1OC`, 3.4 µM; in that of `Cc1ccc2ncnc(Nc3ccccc3O)c2c1`, > 50 µM.
Turning to `COc1cc2ncnc(Nc3ccccc3)c2cc1OC`, the IC50 was > 50 µM.
Take `Cc1ccc2ncnc(Nc3cccc(Br)c3)c2c1`: the IC50 came to 0.33 µM.
Turning to `COc1cc2ncnc(Nc3cc(Cl)cc(Cl)c3)c2cc1OC`, the IC50 was 0.024 µM.
In the case of `COc1cc2ncnc(Nc3cccc(I)c3)c2cc1OC` it was 0.0017 µM; in that of `Cc1ccc2ncnc(Nc3ccc(C#N)cc3)c2c1`, > 50 µM; in that of `COc1ccc(Nc2ncnc3ccc(C)cc23)cc1`, 10 µM.
Molecule `COc1cccc(Nc2ncnc3cc(OC)c(OC)cc23)c1` returned an IC50 of 1 µM.
In the case of `Cc1ccc2ncnc(Nc3ccc4c(c3)OCO4)c2c1` it was 21 µM; in that of `Cc1ccc2ncnc(Nc3cccc(C(F)(F)F)c3)c2c1`, 0.86 µM.
`COc1cc2nc(Cl)nc(Nc3ccc(C)cc3)c2cc1OC`: the IC50 is 4.9 µM.
As to `Cc1ccc2ncnc(Nc3cccc(C(N)=O)c3)c2c1`, the 50% inhibitory concentration (IC50) was > 50 µM.
With `Cc1ccc2ncnc(Nc3ccc(C)c(C)c3)c2c1`, the IC50 was > 45 µM.
In the case of `Cc1ccc(Nc2ncnc3ccc(C)cc23)cc1` it was > 50 µM; in that of `Cc1cccc2c(Nc3cccc(Cl)c3)ncnc12`, > 50 µM; in that of `Cc1ccc2ncnc(Nc3ccc(O)cc3)c2c1`, > 50 µM.
In the case of `Cc1ccc2ncnc(Nc3ccccc3)c2c1` it was > 50 µM; in that of `Cc1ccc2ncnc(Nc3ccccc3Cl)c2c1`, > 50 µM.
In turn, `COc1cc2nc(Cl)nc(Nc3cccc(Cl)c3)c2cc1OC` registered a concentration for half-maximal inhibition (IC50) of 20 µM.
Molecule `Clc1cccc(Nc2ncnc3ccccc23)c1` yielded an IC50 of 0.205 µM.
In the case of `Cc1ccc2ncnc(Nc3ccccc3C)c2c1` it was > 50 µM; in that of `COc1cc2c(Nc3cccc(Cl)c3)ncnc2c(OC)c1OC`, > 50 µM; in that of `Cc1ccc2ncnc(Nc3cccc(Cl)c3)c2c1`, 0.037 µM.
